Results on 20 molecules are retold here after PubChem BioAssay AID298 (DTP/NCI, 2004).

The experiment concerns MX-1 breast xenograft, intrarenal, nude mice, tumor weight. The experiment is described as follows: NCI In Vivo Anticancer Drug Screen. Data for tumor model Human Mammary Carcinoma MX-1 Xenograft (intrarenal inoculation) in NU/NU BALB/C (nude) mice. Particulars: endpoint: mean tumor weight change, higher = larger tumour. An outline of the steps:
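T/C readout: treated-group measurement over vehicle-control measurement, using tumor size or survival in tumor-bearing mice.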
On the technique in general: In xenograft studies the graft and the host belong to different species.

Where [1] appears, read: dose: 25.0 mg/kg/injection, schedule: Q04DX003 (ip), vehicle: saline with Tween-80.
Setting [2] is: dose: 50.0 mg/kg/injection, schedule: Q04DX003 (ip), vehicle: saline with Tween-80.
[3] abbreviates: dose: 100.0 mg/kg/injection, schedule: Q04DX003 (ip), vehicle: saline with Tween-80.
Where [4] appears, read: dose: 300.0 mg/kg/injection, schedule: Q04DX003 (ip), vehicle: Klucel (hydroxypropylcellulose) (HPC).
Setting [5] is: dose: 1.5 mg/kg/injection, schedule: Q04DX003 (ip), vehicle: saline with Tween-80.
[6] abbreviates: dose: 300.0 mg/kg/injection, schedule: Q04DX003 (sc), vehicle: saline.
The mark [7] stands for this setting: dose: 600.0 mg/kg/injection, schedule: Q04DX003 (sc), vehicle: saline.

Where “and” joins values, the source holds several entries; their conditions need not be identical. Equal values may be shown once. Results filed as inconclusive are left out.

For the molecule `O=C1N[C@@H]([C@H]2CC[C@H](Cl)CN2)C(=O)N[C@H]1[C@H]1CC[C@H](Cl)CN1`, the T/C is, setting by setting: (dose: 0.31 mg/kg/injection, schedule: Q01DX010 (sc), vehicle: water) 62 % of control; (dose: 0.63 mg/kg/injection, schedule: Q01DX010 (sc), vehicle: water) 14 % of control; (dose: 1.25 mg/kg/injection, schedule: Q01DX010 (sc), vehicle: water) 1 % of control; (dose: 2.5 mg/kg/injection, schedule: Q01DX010 (sc), vehicle: water) -54 % of control; (dose: 5.0 mg/kg/injection, schedule: Q01DX010 (sc), vehicle: water) -87 % of control.
For the molecule `CC(=O)C[n+]1ccccc1Sc1ccc(Cl)cc1`, the T/C reads like this: under setting [1], 66 % of control; under setting [2], 64 % of control; under setting [3], 89 % of control.
As for `[N-]=[N+]=CC(=O)CCC(NC(=O)OCc1ccccc1)C(=O)OCc1ccccc1` (centres undefined), the T/C is, setting by setting: under setting [4], 6 % of control and 23 % of control and 27 % of control; (dose: 450.0 mg/kg/injection, schedule: Q04DX003 (ip), vehicle: Klucel (hydroxypropylcellulose) (HPC)) 20 % of control; (dose: 600.0 mg/kg/injection, schedule: Q04DX003 (ip), vehicle: Klucel (hydroxypropylcellulose) (HPC)) 6 % of control and 16 % of control; (dose: 900.0 mg/kg/injection, schedule: Q04DX003 (ip), vehicle: Klucel (hydroxypropylcellulose) (HPC)) 1 % of control; (dose: 1200.0 mg/kg/injection, schedule: Q04DX003 (ip), vehicle: Klucel (hydroxypropylcellulose) (HPC)) 22 % of control.
On to `CC(C)N1C(=O)N(Cl)C2C1N(Cl)C(=O)N2Cl` (centres undefined), for which the T/C under setting [1] is 113 % of control.
For `C=C1COC(O)(C2OCOC(C3CC(=O)NC(=O)C3)C2O)C1C` (centres undefined), the T/C (dose: 37.5 micrograms/kg/injection, schedule: Q04DX003 (ip), vehicle: water) was 117 % of control.
Turning to `C[C@@](O)(/C=C/[C@H]1CC=CC(=O)O1)[C@@H](C[C@@H](O)\C=C/C=C\C=C\CO)OP(=O)(O)O`, the T/C (dose: 1.5 mg/kg/injection, schedule: Q01DX009 (ip), vehicle: other) is 113 % of control; the T/C (dose: 6.0 mg/kg/injection, schedule: Q01DX009 (ip), vehicle: other) was 57 % of control; the T/C (dose: 12.0 mg/kg/injection, schedule: Q01DX009 (ip), vehicle: other) was 61 % of control; the T/C (dose: 37.5 mg/kg/injection, schedule: Q04DX003 (sc), vehicle: other) is 29 % of control.
With `O=S(=O)(O)O.[NH-]C1CCCCC1[NH-].[Pt+2]` (centres undefined), the T/C is, setting by setting: (dose: 0.63 mg/kg/injection, schedule: Q01DX010 (sc), vehicle: dextrose) 81 % of control; (dose: 1.25 mg/kg/injection, schedule: Q01DX010 (sc), vehicle: dextrose) 41 % of control; (dose: 2.5 mg/kg/injection, schedule: Q01DX010 (sc), vehicle: dextrose) 6 % of control.
As for `O=C1c2c(O)cccc2-c2nn(CCNCCO)c3ccc(NCCNCCO)c1c23`, the T/C reads like this: (dose: 2.75 mg/kg/injection, schedule: Q04DX003 (ip), vehicle: water) 3 % of control; (dose: 5.5 mg/kg/injection, schedule: Q04DX003 (ip), vehicle: water) -100 % of control; (dose: 11.0 mg/kg/injection, schedule: Q04DX003 (ip), vehicle: water) -19 % of control.
For the molecule `COc1cc([C@@H]2c3cc4c(cc3[C@@H](OC3OC5COC(C)OC5C(O)C3O)[C@H]3COC(=O)[C@H]23)OCO4)cc(OC)c1O` (some centres undefined), the T/C reads like this: (dose: 2.0 mg/kg/injection, schedule: Q01DX010 (ip), vehicle: saline) 58 % of control and 62 % of control; (dose: 4.0 mg/kg/injection, schedule: Q01DX010 (ip), vehicle: saline) 23 % of control and 30 % of control; (dose: 8.0 mg/kg/injection, schedule: Q01DX010 (ip), vehicle: saline) 5 % of control and 20 % of control; (dose: 16.0 mg/kg/injection, schedule: Q01DX010 (ip), vehicle: saline) 4 % of control and 6 % of control; (dose: 64.0 mg/kg/injection, schedule: Q04DX003 (ip), vehicle: saline) 76 % of control.
Regarding `COC1=C(C)C(=O)C2=C(C1=O)C(CO)N1C(C#N)C3CC4C(C1C2N1CCOC41)N3C` (centres undefined), the T/C by setting is: (dose: 0.9 mg/kg/injection, schedule: Q04DX003 (ip), vehicle: acid diluted with saline) 55 % of control; (dose: 1.25 mg/kg/injection, schedule: Q04DX003 (ip), vehicle: acid diluted with saline) 35 % of control; (dose: 1.5 mg/kg/injection, schedule: Q04DX003 (ip), vehicle: acid diluted with saline) 19 % of control; (dose: 2.5 mg/kg/injection, schedule: Q04DX003 (ip), vehicle: acid diluted with saline) 17 % of control and 19 % of control; (dose: 2.5 mg/kg/injection, schedule: Q04DX003 (ip), vehicle: saline + alcohol) 50 % of control; (dose: 5.0 mg/kg/injection, schedule: Q04DX003 (ip), vehicle: saline + alcohol) 42 % of control.
Regarding `O=NNc1ccc2cccnc2n1`, the T/C (dose: 37.5 mg/kg/injection, schedule: Q04DX003 (ip), vehicle: other) is 6 % of control; the T/C (dose: 37.5 mg/kg/injection, schedule: Q04DX003 (ip), vehicle: water) is 63 % of control; the T/C (dose: 75.0 mg/kg/injection, schedule: Q04DX003 (ip), vehicle: other) was -45 % of control; the T/C (dose: 75.0 mg/kg/injection, schedule: Q04DX003 (ip), vehicle: water) is 17 % of control; the T/C (dose: 150.0 mg/kg/injection, schedule: Q04DX003 (ip), vehicle: water) is 9 % of control.
`N=C(N)c1ccc(N=Nc2c(O)ccc3cc(O)ccc23)cc1`: the T/C runs as follows: (dose: 75.0 mg/kg/injection, schedule: Q04DX003 (ip), vehicle: Klucel (hydroxypropylcellulose) (HPC)) 98 % of control and 123 % of control; (dose: 150.0 mg/kg/injection, schedule: Q04DX003 (ip), vehicle: Klucel (hydroxypropylcellulose) (HPC)) 95 % of control and 117 % of control; under setting [4], 70 % of control.
In the case of `CO[C@@]12[C@@H]3N[C@@H]3CN1C1=C(C(=O)C(N3CCCC3)=C(C)C1=O)[C@@H]2COC(N)=O`, the T/C was 6 % of control and 12 % of control under setting [5]; -98 % of control (dose: 12.0 mg/kg/injection, schedule: Q04DX003 (ip), vehicle: saline with Tween-80).
As to `CCCCCCCCCCCCN1C(C)=CS/C1=C\C=C\c1scc(C)[n+]1CCCCCCCCCCCC`, the T/C is, setting by setting: (dose: 0.75 mg/kg/injection, schedule: Q04DX003 (ip), vehicle: saline with Tween-80) 91 % of control; under setting [5], 89 % of control; (dose: 3.0 mg/kg/injection, schedule: Q04DX003 (ip), vehicle: saline with Tween-80) 28 % of control.
On to `[Cl][Sn]([c]1ccccc1)[c]1ccccc1`, for which the T/C is 104 % of control under setting [6]; 86 % of control under setting [7]; 55 % of control (dose: 1200.0 mg/kg/injection, schedule: Q04DX003 (sc), vehicle: saline); 66 % of control (dose: 2400.0 mg/kg/injection, schedule: Q04DX003 (sc), vehicle: saline).
Turning to `NNC(=S)N/N=C/c1ccccn1`, the T/C runs as follows: (dose: 15.0 mg/kg/injection, schedule: Q04DX003 (sc), vehicle: saline with Tween-80) 116 % of control; (dose: 30.0 mg/kg/injection, schedule: Q04DX003 (sc), vehicle: saline with Tween-80) 96 % of control; (dose: 60.0 mg/kg/injection, schedule: Q04DX003 (sc), vehicle: saline with Tween-80) 123 % of control.
Turning to `COc1ccc(O)cc1`, the T/C by setting is: under setting [2], 76 % of control; under setting [3], 87 % of control; (dose: 200.0 mg/kg/injection, schedule: Q04DX003 (ip), vehicle: saline with Tween-80) 79 % of control; (dose: 400.0 mg/kg/injection, schedule: Q04DX003 (ip), vehicle: saline with Tween-80) 53 % of control.
As to `CC(=O)C1=C(O)C2(O)C(=O)c3c(c(C)c4ccc(C)c(O)c4c3O)CC2C(N)C1=O` (centres undefined), the T/C is 89 % of control (dose: 100.0 mg/kg/injection, schedule: Q04DX003 (sc), vehicle: saline); 107 % of control (dose: 200.0 mg/kg/injection, schedule: Q04DX003 (sc), vehicle: saline); 98 % of control (dose: 400.0 mg/kg/injection, schedule: Q04DX003 (sc), vehicle: saline); 84 % of control (dose: 800.0 mg/kg/injection, schedule: Q04DX003 (sc), vehicle: saline).
Consider `CCCCCCCCCCCCCCCCP(=O)(OCCOCCCCCC)OCCOCCCCCC`, for which the T/C was 102 % of control (dose: 150.0 mg/kg/injection, schedule: Q04DX003 (sc), vehicle: saline); 97 % of control under setting [6]; 70 % of control under setting [7].
As to `CS(=O)(=O)c1ncc(Br)cn1`, the T/C by setting is: (dose: 25.0 mg/kg/injection, schedule: Q01DX010 (sc), vehicle: distilled water + Tween-80) 98 % of control; (dose: 200.0 mg/kg/injection, schedule: Q01DX010 (sc), vehicle: distilled water + Tween-80) 118 % of control.
